# According to ChEMBL document CHEMBL6177930, “2-(4-Bromobenzyl) tethered 4-amino aryl/alkyl-5,6,7,8-tetrahydrobenzo[4,5]thieno[2,3-d]pyrimidines: design, synthesis, anticancer assessment via dual topoisomerase-I/II inhibition, and in silico studies” (RSC Med Chem, 2025):
# Active and inactive are the calls of the source. The rule behind the calls is not given here.
# Tests used:
# FaDu [1] = experiment: Induction of morphological changes in human FaDu cells assessed as reduction in cell density at 1 uM incubated for 48 hrs by bright field microscope based analysis; type: functional
# FaDu [2] = experiment: Antiproliferative activity against human FaDu cells assessed as inhibition of cell growth at 10 uM measured after 48 to 72 hrs by MTT assay relative to control; type: functional; conditions: time 48-72 hrs
# FaDu [3] = experiment: Antiproliferative activity against human FaDu cells assessed as inhibition of cell growth measured after 72 hrs by MTT assay; type: functional, cell-based
# FaDu [4] = experiment: Inhibition of colony formation in human FaDu cells assessed as reduction in colony formation incubated for 48 hrs crystal violet staining based analysis; type: functional, cell-based; conditions: dose 1-5 µM
# FaDu [5] = experiment: Upregulation of cleaved caspase-3 level in human FaDu cells measured after 48 hrs by Western blot analysis; type: functional, cell-based; conditions: dose 1-5 µM
# [6] = biological target: T1, Prostaglandin G/H synthase 1 (Ovis aries) (UniProt P05979); experiment: Inhibition of ovine COX-1 at 10 uM relative to control
# T1 sequence (whole entry): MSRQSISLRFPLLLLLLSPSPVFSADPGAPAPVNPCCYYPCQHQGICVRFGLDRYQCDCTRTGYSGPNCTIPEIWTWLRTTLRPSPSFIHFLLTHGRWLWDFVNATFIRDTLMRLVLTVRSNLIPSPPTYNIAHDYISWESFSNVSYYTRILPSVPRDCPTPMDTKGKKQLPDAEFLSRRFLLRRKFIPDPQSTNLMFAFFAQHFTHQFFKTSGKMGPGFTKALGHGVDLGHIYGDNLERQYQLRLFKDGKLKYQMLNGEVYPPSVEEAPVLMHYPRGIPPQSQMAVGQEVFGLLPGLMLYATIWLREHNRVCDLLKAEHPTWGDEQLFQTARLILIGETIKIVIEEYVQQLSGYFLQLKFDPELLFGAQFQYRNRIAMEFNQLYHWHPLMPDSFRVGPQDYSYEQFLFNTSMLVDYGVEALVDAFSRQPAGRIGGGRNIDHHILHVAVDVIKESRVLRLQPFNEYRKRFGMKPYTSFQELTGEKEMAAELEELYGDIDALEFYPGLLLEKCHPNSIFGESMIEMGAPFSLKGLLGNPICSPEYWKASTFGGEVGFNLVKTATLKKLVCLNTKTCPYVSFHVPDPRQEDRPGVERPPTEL
# FaDu [7] = experiment: Inhibition of cell migration in human FaDu cells assessed as reduction in wound closure at 5 uM measured after 48 hrs by bright field microscopic analysis; type: functional, cell-based
# [8] = Antiproliferative activity against human HCC cells assessed as inhibition of cell growth at 10 uM measured after 48 to 72 hrs by MTT assay relative to control; type: functional; conditions: time 48-72 hrs
# [9] = biological target: T2, Prostaglandin G/H synthase 2 (Homo sapiens) (UniProt P35354); experiment: Inhibition of human recombinant COX-2 at 10 uM relative to control
# T2 sequence (whole entry): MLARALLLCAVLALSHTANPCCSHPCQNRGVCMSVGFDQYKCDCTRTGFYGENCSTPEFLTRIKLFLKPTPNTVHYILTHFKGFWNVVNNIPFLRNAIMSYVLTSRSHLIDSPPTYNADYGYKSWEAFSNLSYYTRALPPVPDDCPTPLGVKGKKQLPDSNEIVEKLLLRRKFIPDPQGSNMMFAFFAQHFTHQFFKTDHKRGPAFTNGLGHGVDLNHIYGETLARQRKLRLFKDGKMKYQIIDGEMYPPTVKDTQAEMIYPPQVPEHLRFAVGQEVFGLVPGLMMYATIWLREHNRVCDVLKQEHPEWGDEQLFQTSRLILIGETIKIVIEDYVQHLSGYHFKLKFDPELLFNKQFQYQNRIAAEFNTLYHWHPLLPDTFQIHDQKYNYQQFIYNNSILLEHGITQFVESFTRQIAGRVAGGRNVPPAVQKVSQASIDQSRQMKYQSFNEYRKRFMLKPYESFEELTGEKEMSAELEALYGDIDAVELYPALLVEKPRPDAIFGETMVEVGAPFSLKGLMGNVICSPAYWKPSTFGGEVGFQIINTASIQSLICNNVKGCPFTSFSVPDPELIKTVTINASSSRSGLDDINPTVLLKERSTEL
# FaDu [10] = experiment: Induction of apoptosis in human FaDu cells assessed as nuclear changes at 1 to 5 uM by DAPI staining based analysis; type: functional, cell-based; conditions: dose 1-5 µM
# FaDu [11] = experiment: Induction of apoptosis in human FaDu cells assessed as apoptotic bodies at 1 to 5 uM by DAPI staining based analysis; type: functional, cell-based; conditions: dose 1-5 µM
# FaDu [12] = experiment: Induction of morphological changes in human FaDu cells assessed as appearance of rounded cells at 2 to 5 uM incubated for 48 hrs by bright field microscope based analysis; type: functional, cell-based; conditions: dose 2-5 µM
# FaDu [13] = experiment: Induction of morphological changes in human FaDu cells assessed as reduction in cell density at 2 to 5 uM incubated for 48 hrs by bright field microscope based analysis; type: functional; conditions: dose 2-5 µM
# FaDu [14] = experiment: Induction of autophagy in human FaDu cells assessed as increase in acidic vesicular organelles measured after 48 hrs by acridine orange staining based fluorescence microscopy analysis; type: functional, cell-based; conditions: dose 1-5 µM
# MCF7 [15] = experiment: Induction of cell cycle arrest in human MCF7 cells assessed as accumulation of cells at S phase measured after 24 hrs by PI staining based flow cytometry analysis (reference value: 24.7%); type: functional
# FaDu [16] = experiment: Inhibition of cell migration in human FaDu cells assessed as reduction in wound closure at 5 uM measured after 48 hrs by bright field microscopic analysis relative to control; type: functional
# T47D = experiment: Antiproliferative activity against human T47D cells assessed as inhibition of cell growth at 10 uM measured after 48 to 72 hrs by MTT assay relative to control; type: functional; conditions: time 48-72 hrs
# FaDu [17] = experiment: Antiproliferative activity against human FaDu cells assessed as inhibition of cell growth measured after 48 hrs by MTT assay; type: functional, cell-based
# A549 = experiment: Antiproliferative activity against human A549 cells assessed as inhibition of cell growth at 10 uM measured after 48 to 72 hrs by MTT assay relative to control; type: functional; conditions: time 48-72 hrs
# FaDu [18] = experiment: Inhibition of cell migration in human FaDu cells assessed as reduction in wound closure at 1 to 2 uM measured after 48 hrs by bright field microscopic analysis; type: functional, cell-based; conditions: dose 1-2 µM
# FaDu [19] = experiment: Inhibition of cell migration in human FaDu cells assessed as reduction in wound closure at 1 uM measured after 48 hrs by bright field microscopic analysis relative to control; type: functional
# FaDu [20] = experiment: Induction of morphological changes in human FaDu cells assessed as cell membrane blebbing at 2 to 5 uM incubated for 48 hrs by bright field microscope based analysis; type: functional; conditions: dose 2-5 µM
# [21] = biological target: DNA topoisomerase 2-alpha (Homo sapiens) (UniProt P11388); experiment: Inhibition of human topoisomerase-II alpha assessed as reduction in decatenation activity using kinetoplast DNA as substrate incubated for 30 mins by EtBr staining based agarose gel electrophoresis method
# MCF7 [22] = experiment: Inhibition of oxidative stress in human MCF7 cells assessed as reduction in ROS production incubated for 24 hrs by DCFH-DA staining based flow cytometry analysis; type: functional, cell-based
# MCF7 [23] = experiment: Induction of cell cycle arrest in human MCF7 cells assessed as accumulation of cells at G2/M phase measured after 24 hrs by PI staining based flow cytometry analysis (reference value: 14.2%); type: functional
# DNA topoisomerase 2-alpha (Homo sapiens), sequence (P11388 whole entry): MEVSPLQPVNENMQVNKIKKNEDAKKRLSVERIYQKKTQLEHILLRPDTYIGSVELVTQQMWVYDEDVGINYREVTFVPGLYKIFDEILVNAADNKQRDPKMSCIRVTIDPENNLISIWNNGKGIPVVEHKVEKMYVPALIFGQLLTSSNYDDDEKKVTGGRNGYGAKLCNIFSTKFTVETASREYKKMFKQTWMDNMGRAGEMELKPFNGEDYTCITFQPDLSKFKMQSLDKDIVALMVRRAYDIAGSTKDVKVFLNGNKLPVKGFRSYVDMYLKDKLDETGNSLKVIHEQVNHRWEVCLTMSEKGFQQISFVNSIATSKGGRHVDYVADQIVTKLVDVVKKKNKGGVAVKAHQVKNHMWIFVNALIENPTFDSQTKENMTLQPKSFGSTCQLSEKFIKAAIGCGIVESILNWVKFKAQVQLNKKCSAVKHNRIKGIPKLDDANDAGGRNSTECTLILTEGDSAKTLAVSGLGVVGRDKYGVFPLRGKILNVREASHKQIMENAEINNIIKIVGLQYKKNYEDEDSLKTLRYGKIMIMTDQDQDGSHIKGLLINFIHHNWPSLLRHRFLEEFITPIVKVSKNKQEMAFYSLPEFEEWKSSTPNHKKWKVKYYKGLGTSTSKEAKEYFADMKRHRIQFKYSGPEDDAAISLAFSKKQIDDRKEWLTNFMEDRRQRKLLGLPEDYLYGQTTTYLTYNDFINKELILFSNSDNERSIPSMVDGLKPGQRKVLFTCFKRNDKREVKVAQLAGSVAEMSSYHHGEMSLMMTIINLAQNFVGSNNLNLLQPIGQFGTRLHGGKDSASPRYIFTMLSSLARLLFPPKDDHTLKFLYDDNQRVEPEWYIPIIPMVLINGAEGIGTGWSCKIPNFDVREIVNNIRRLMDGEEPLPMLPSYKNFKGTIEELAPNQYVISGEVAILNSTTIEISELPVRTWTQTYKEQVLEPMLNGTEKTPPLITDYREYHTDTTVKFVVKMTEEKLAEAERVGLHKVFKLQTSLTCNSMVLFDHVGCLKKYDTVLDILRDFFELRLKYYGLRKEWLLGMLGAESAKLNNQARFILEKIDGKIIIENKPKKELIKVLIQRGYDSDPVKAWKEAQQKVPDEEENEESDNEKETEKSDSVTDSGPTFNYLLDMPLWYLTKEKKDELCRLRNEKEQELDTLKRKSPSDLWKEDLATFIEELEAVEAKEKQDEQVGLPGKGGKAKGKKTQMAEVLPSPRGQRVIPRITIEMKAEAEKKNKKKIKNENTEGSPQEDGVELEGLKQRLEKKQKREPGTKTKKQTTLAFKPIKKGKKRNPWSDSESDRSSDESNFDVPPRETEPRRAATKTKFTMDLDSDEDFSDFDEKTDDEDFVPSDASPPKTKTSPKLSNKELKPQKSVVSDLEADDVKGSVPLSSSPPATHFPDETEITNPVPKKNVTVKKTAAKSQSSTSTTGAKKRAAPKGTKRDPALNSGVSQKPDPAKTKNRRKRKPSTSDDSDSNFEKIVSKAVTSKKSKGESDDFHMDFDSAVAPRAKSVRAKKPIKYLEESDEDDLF
compound,measurement,setting,value
Brc1ccc(Cc2nc(N3CCN(c4ccncc4)CC3)c3c4c(sc3n2)CCCC4)cc1,Activity,FaDu [1],Active
same,inhibition at 10 µM,FaDu [2],83.5%
same,IC50,FaDu [3],1730 nM
same,Activity,FaDu [3]; dose 0.5-50 µM,Dose-dependent-effect
same,inhibition,FaDu [4],Dose-dependent-effect
same,Activity,FaDu [5],Dose-dependent-effect
same,inhibition,[6],46.5%
same,inhibition,FaDu [7],Active
same,inhibition at 10 µM,[8],2.28%
same,inhibition,[9],75.7%
same,Activity,FaDu [10],Active
same,Activity,FaDu [11],Active
same,Activity,FaDu [12],Active
same,Activity,FaDu [13],Active
same,Activity,FaDu [14],Dose-dependent-effect
same,Activity,MCF7 [15],17.8%
same,inhibition at 5 µM,FaDu [16],24.4%
same,inhibition at 10 µM,T47D,83.4%
same,IC50,FaDu [17],3060 nM
same,Activity,FaDu [17]; dose 0.5-50 µM,Dose-dependent-effect
same,inhibition at 10 µM,A549,39.2%
same,inhibition,FaDu [18],Active
same,inhibition at 1 µM,FaDu [19],64.7%
same,Activity,FaDu [20],Active
same,inhibition,[21],Active; Compound Showed Higher Inhibition Activity Than Etoposide
same,inhibition,MCF7 [22],Active
same,Activity,MCF7 [23],52.8%
